Measured values published in ChEMBL document CHEMBL1201862, “PubChem BioAssay data set” (2004).
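Five concentrations, 48 hours, 96-well plates. GI50 is the concentration that inhibits growth by half.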 Calls of active or inactive are those of the source. Rule as the data show it: active = GI50 up to about 1.1 µM and inactive = higher.

How the values were obtained:
Assay in all cases: NCI-60 cell line screen, 48 h
Hs-578T = system: Hs-578T
K562 = system: K562
CCRF-CEM = system: CCRF-CEM
SNB-19 = system: SNB-19
MDA-N = system: MDA-N
U-251 = system: U-251
MOLT-4 = system: MOLT-4
HOP-62 = system: HOP-62
HCT-15 = system: HCT-15
OVCAR-3 = system: OVCAR-3
TK-10 = system: TK-10
NCI-H226 = system: NCI-H226
OVCAR-4 = system: OVCAR-4
HL-60 = system: HL-60
KM12 = system: KM12
SF-295 = system: SF-295
T47D = system: T47D
CAKI-1 = system: CAKI-1
UACC-257 = system: UACC-257
MDA-MB-435 = system: MDA-MB-435
HOP-92 = system: HOP-92
HT-29 = system: HT-29
UACC-62 = system: UACC-62
HCT-116 = system: HCT-116
M14 = system: M14
Malme-3M = system: Malme-3M
A498 = system: A498
RXF 393 = system: RXF 393
NCI-H522 = system: NCI-H522
EKVX = system: EKVX
OVCAR-5 = system: OVCAR-5
OVCAR-8 = system: OVCAR-8
UO-31 = system: UO-31
HCC 2998 = system: HCC 2998
RPMI-8226 = system: RPMI-8226
SW-620 = system: SW-620
MCF7 = system: MCF7
SF-268 = system: SF-268
SN12C = system: SN12C
SF-539 = system: SF-539
SK-MEL-2 = system: SK-MEL-2
786-0 = system: 786-0
LOX IMVI = system: LOX IMVI
MDA-MB-231 = system: MDA-MB-231
SK-MEL-28 = system: SK-MEL-28
ACHN = system: ACHN
A549 = system: A549
PC-3 = system: PC-3
SK-OV-3 = system: SK-OV-3
IGROV-1 = system: IGROV-1
SNB-75 = system: SNB-75
NCI/ADR-RES = system: NCI/ADR-RES
BT-549 = system: BT-549
NCI-H460 = system: NCI-H460
SK-MEL-5 = system: SK-MEL-5
COLO 205 = system: COLO 205
NCI-H23 = system: NCI-H23
DU-145 = system: DU-145
SR = system: SR

Measured: GI50

CCCCCCCCCCCCCCCCOCC(Cl)COP(=O)(O)OP(=O)(O)OCC1OC(n2cnc3c(N)ncnc32)C(O)C1O (stereo not given)
inactive: Hs-578T 32.4 µM | K562 > 100 µM | CCRF-CEM > 100 µM | SNB-19 > 100 µM | MDA-N 61.8 µM | U-251 > 100 µM | MOLT-4 > 100 µM | HOP-62 > 100 µM | OVCAR-3 > 100 µM | TK-10 > 100 µM | NCI-H226 36.7 µM | OVCAR-4 > 100 µM | HL-60 > 100 µM | KM12 86.9 µM | SF-295 > 100 µM | T47D 84.5 µM | CAKI-1 > 100 µM | UACC-257 > 100 µM | MDA-MB-435 54.7 µM | HOP-92 70.8 µM | HT-29 > 100 µM | UACC-62 > 100 µM | HCT-116 38.1 µM | M14 83.6 µM | Malme-3M > 100 µM | A498 > 100 µM | RXF 393 > 100 µM | NCI-H522 > 100 µM | EKVX > 100 µM | OVCAR-5 50.7 µM | OVCAR-8 > 100 µM | UO-31 61 µM | HCC 2998 > 100 µM | RPMI-8226 > 100 µM | SW-620 > 100 µM | MCF7 > 100 µM | SF-268 > 100 µM | SN12C > 100 µM | SF-539 76 µM | SK-MEL-2 > 100 µM | 786-0 > 100 µM | LOX IMVI 75.9 µM | MDA-MB-231 38.7 µM | SK-MEL-28 > 100 µM | ACHN > 100 µM | A549 > 100 µM | PC-3 29.9 µM | SK-OV-3 68.5 µM | IGROV-1 > 100 µM | SNB-75 31 µM | NCI/ADR-RES > 100 µM | BT-549 > 100 µM | NCI-H460 52.4 µM | SK-MEL-5 > 100 µM | COLO 205 > 100 µM | NCI-H23 > 100 µM
> 100 µM: HCT-15

COc1ccc2c(=O)oc3c(OC)cc(CCN(C)C)c4c(=O)oc1c2c34 [TASPINE]
active: CCRF-CEM 0.948 µM
inactive: Hs-578T 10.3 µM | SNB-19 8.93 µM | MDA-N 7.82 µM | U-251 9.68 µM | MOLT-4 6.79 µM | OVCAR-3 9.86 µM | DU-145 8.51 µM | NCI-H226 24.2 µM | T47D 9.35 µM | MDA-MB-435 8.32 µM | UACC-62 8.97 µM | M14 9.31 µM | A498 10.3 µM | NCI-H522 6.76 µM | OVCAR-5 11.7 µM | OVCAR-8 6.93 µM | MCF7 5.86 µM | SF-268 7.33 µM | SN12C 7.78 µM | SK-MEL-2 12.1 µM | MDA-MB-231 8.55 µM | PC-3 10.5 µM | NCI/ADR-RES 7.46 µM | BT-549 7.74 µM | SK-MEL-5 7.29 µM | COLO 205 9.16 µM | NCI-H23 9.27 µM

CN1CCOC1c1ccccc1O (stereo not given)
inactive: Hs-578T > 100 µM | K562 > 100 µM | CCRF-CEM > 100 µM | SNB-19 > 100 µM | MDA-N > 100 µM | U-251 > 100 µM | MOLT-4 > 100 µM | HOP-62 > 100 µM | OVCAR-3 > 100 µM | TK-10 > 100 µM | NCI-H226 > 100 µM | OVCAR-4 > 100 µM | KM12 > 100 µM | SR > 100 µM | SF-295 > 100 µM | T47D > 100 µM | CAKI-1 > 100 µM | UACC-257 > 100 µM | MDA-MB-435 > 100 µM | HOP-92 > 100 µM | HT-29 > 100 µM | UACC-62 > 100 µM | HCT-116 > 100 µM | M14 > 100 µM | Malme-3M > 100 µM | A498 > 100 µM | RXF 393 > 100 µM | NCI-H522 > 100 µM | EKVX > 100 µM | OVCAR-5 > 100 µM | OVCAR-8 > 100 µM | UO-31 > 100 µM | RPMI-8226 > 100 µM | SW-620 > 100 µM | MCF7 > 100 µM | SF-268 > 100 µM | SF-539 > 100 µM | SK-MEL-2 > 100 µM | 786-0 > 100 µM | LOX IMVI > 100 µM | MDA-MB-231 > 100 µM | ACHN > 100 µM | A549 > 100 µM | PC-3 > 100 µM | SK-OV-3 > 100 µM | IGROV-1 > 100 µM | SNB-75 85.3 µM | NCI/ADR-RES > 100 µM | BT-549 > 100 µM | NCI-H460 > 100 µM | SK-MEL-5 > 100 µM | COLO 205 > 100 µM | NCI-H23 > 100 µM
> 100 µM: HCT-15

COc1c(CCl)cc(-c2cc(=O)c3ccccc3s2)cc1CCl
> 100 µM: HCT-15
active: HOP-92 0.0449 µM | 786-0 0.65 µM
inactive: Hs-578T 9.57 µM | K562 2.68 µM | CCRF-CEM 2.24 µM | SNB-19 29.3 µM | MDA-N 6.08 µM | U-251 18.8 µM | MOLT-4 1.91 µM | HOP-62 10.6 µM | OVCAR-3 11.5 µM | DU-145 > 100 µM | TK-10 26.9 µM | NCI-H226 30.1 µM | OVCAR-4 3.58 µM | HL-60 2.59 µM | KM12 3.33 µM | SR 3.18 µM | SF-295 11.9 µM | T47D 1.66 µM | CAKI-1 7.62 µM | UACC-257 > 100 µM | MDA-MB-435 > 100 µM | UACC-62 4.99 µM | HCT-116 5.58 µM | M14 > 100 µM | Malme-3M 1.5 µM | A498 20.4 µM | RXF 393 1.63 µM | NCI-H522 1.99 µM | EKVX > 100 µM | OVCAR-5 > 100 µM | OVCAR-8 15 µM | UO-31 1.95 µM | HCC 2998 2.29 µM | RPMI-8226 3.77 µM | MCF7 1.91 µM | SF-268 9.23 µM | SN12C > 100 µM | SF-539 6.55 µM | SK-MEL-2 10.1 µM | LOX IMVI 1.86 µM | MDA-MB-231 2.76 µM | SK-MEL-28 > 94.4 µM | ACHN 45.2 µM | A549 37.8 µM | PC-3 > 100 µM | SK-OV-3 27.3 µM | IGROV-1 2.51 µM | SNB-75 6.78 µM | BT-549 36.6 µM | NCI-H460 22.9 µM | SK-MEL-5 39.4 µM | COLO 205 3.33 µM | NCI-H23 18.9 µM
